From patent publication US4347319A, “Microbiological epoxidation process” (priority 1980, dated 1982)
Like-named read-outs stand apart in the source and are kept apart here.

Key:
[1] = system: Candida utilis ATCC 26387; assay: Oxidation of sec-alcohols to ketones by cell suspensions of yeasts; format: cell-based; settings: sec-alcohol to methyl ketone
[2] = system: cell extract of Candida utilis ATCC 26,387; assay: Oxidation of secondary alcohols to methylketone by cell extracts of yeasts; format: biochemical; settings: methanol-grown; cell extract + NAD^+; sec. alcohol to methyl ketone; gas chromatography
[3] = system: Kloeckera sp. Strain A2 (NRRLY-11,420); assay: Oxidation of sec-alcohols to ketones by cell suspensions of yeasts; format: cell-based; settings: sec-alcohol to methyl ketone
[4] = system: cell extract of Pichia sp. NRRL-Y-11,328; assay: Oxidation of secondary alcohols to methylketone by cell extracts of yeasts; format: biochemical; settings: methanol-grown; cell extract + NAD^+; sec. alcohol to methyl ketone; gas chromatography
[5] = system: cell extract of Torulopsis sp. strain A1 NRRL-Y-11,419; assay: as above; format: biochemical; settings: methanol-grown; cell extract + NAD^+; sec. alcohol to methyl ketone; gas chromatography
[6] = system: Torulopsis sp. Strain A1 (NRRLY-11,419); assay: Oxidation of sec-alcohols to ketones by cell suspensions of yeasts; format: cell-based; settings: sec-alcohol to methyl ketone
[7] = system: Methylocystis parvus CRL 18 NRRL B-11,204; assay: Sec. alcohol oxidation by cell suspensions of methanol-grown cells; format: cell-based; settings: sec. alcohol to methyl ketone
Source text: (§1) In this example, the procedure of Example 1 was repeated except that a plurality of the methane-utilizing methylotrophic microorganisms of the invention were each aerobically grown in a methanol-containing nutrient medium instead of a methane-containing medium. The nutrients in the medium were the same as indicated in Example 1 except that 0.4% v/v methanol was used as the alcohol dehydrogenase enzyme inducer and major source of carbon and energy for growth. Following growth the cells were harvested and washed as described in Example 1. The resting cells of the induced methanol-grown methylotrophic microorganisms were then contacted with a […] under aerobic conditions in a buffered solution by the procedure described in Example 1.

[8] = system: Methylobacter chroococcum CRL M6 NRRL B-11,214; assay: as above; format: cell-based; settings: sec. alcohol to methyl ketone
Source text: as §1

[9] = system: Methylobacterium organophilum CRL 26 NRRL B-11,222; assay: as above; format: cell-based; settings: sec. alcohol to methyl ketone
Source text: as §1

[10] = system: Methylosinus trichosporium CRL 15 NRRL B-11,202; assay: as above; format: cell-based; settings: sec. alcohol to methyl ketone
Source text: as §1

[11] = system: Methylococcus capsulatus CRL M1 NRRL B-11,219; assay: as above; format: cell-based; settings: sec. alcohol to methyl ketone
Source text: as §1

[12] = system: Methylobacter vinelandii CRL M5Y NRRL B-11,218; assay: as above; format: cell-based; settings: sec. alcohol to methyl ketone
Source text: as §1

[13] = system: Methylomonas methanica CRL M4P NRRL B-11,205; assay: as above; format: cell-based; settings: sec. alcohol to methyl ketone
Source text: as §1

[14] = system: Pichia sp. NRRL-Y-11328; assay: Oxidation of sec-alcohols to ketones by cell suspensions of yeasts; format: cell-based; settings: sec-alcohol to methyl ketone
[15] = system: Hansenula polymorpha ATCC 26012; assay: as above; format: cell-based; settings: sec-alcohol to methyl ketone
[16] = system: purified secondary alcohol dehydrogenase from Pichia sp. NRRL Y-11,328; assay: Substrate specificity, electron acceptor and stoichiometry of purified yeast SADH; format: biochemical; settings: examined spectrophotometrically
[17] = system: cell extract of Kloeckera sp. strain A2 NRRL-Y-11,420; assay: Oxidation of secondary alcohols to methylketone by cell extracts of yeasts; format: biochemical; settings: methanol-grown; cell extract + NAD^+; sec. alcohol to methyl ketone; gas chromatography
[18] = system: cell extract of Hansenula polymorpha ATCC 26,012; assay: as above; format: biochemical; settings: methanol-grown; cell extract + NAD^+; sec. alcohol to methyl ketone; gas chromatography
[19] = system: Methylobacter bovis (CRL M1Y) NRRL B-11,216; assay: Oxidation by washed cell suspensions of methane-grown cells; format: cell-based
Experimental: The pH of the nutrient medium was adjusted to 7.0 by the addition of acid or base and 50 ml samples of the nutrient medium were charged into a plurality of 300 ml shaker flasks. The shaker flasks were inoculated with an inoculating loop of cells from an agar plate containing homogeneous colonies of the microorganisms on the plate (the purity of the isolates was confirmed by microscopic examination. The isolates had been maintained on agar plates under an atmosphere of methane and air having a 1:1 v/v gas ratio which had been transferred evey two weeks. The gaseous phase of the inoculated flasks was then replaced with a gas mixture comprised of methane and air having a ratio of 1:1 on a v/v basis. […]
(§2) The cells were harvested by centrifugation at 10,000×g. at 4° C. for 30 minutes. The cell pellet was washed twice with a 0.15 M phosphate buffer at a pH of 7.0 (containing 0.002 M MgCl2). The washed cells were then suspended in a 0.15 M phosphate buffer at pH 7.0.
(§3) A 0.5 ml sample of each washed cell suspension (2 mg cells) was put into 10 ml vials at 4° C. which were sealed with a rubber cap. The gaseous phase of the vials was removed with vacuum and then was replaced with a gas mixture of the oxidative substrate (e.g., methane) and oxygen at a 1:1 v/v ratio. The vials were then incubated at 30 ° C. on a rotary shaker at 300 rpm. Samples of product (3 μl) were withdrawn periodically with a microsyringe and the products were analyzed by gas chromatography (ionization flame detector column).
(§4) The newly discovered and isolated microorganism strains of the present invention were each grown aerobically in the presence of methane in the manner described above. The methane-grown microbial cells were then washed, recovered and put to use in oxidizing an oxidative substrate by the procedure described above except in the case of a liquid substrate 10 μl of the substrate were used.

[20] = system: Methylobacter chroococcum (CRL 23 PM8) NRRL B-11,215; assay: as above; format: cell-based
Experimental: (§5) The pH of the nutrient medium was adjusted to 7.0 by the addition of acid or base and 50 ml samples of the nutrient medium were charged into a plurality of 300 ml shaker flasks. The shaker flasks were inoculated with an inoculating loop of cells from an agar plate containing homogeneous colonies of the microorganisms on the plate (the purity of the isolates was confirmed by microscopic examination. The isolates had been maintained on agar plates under an atmosphere of methane and air having a 1:1 v/v gas ratio which had been transferred evey two weeks. The gaseous phase of the inoculated flasks was then replaced with a gas mixture comprised of methane and air having a ratio of 1:1 on a v/v basis. The inoculated flasks were sealed air tight and were incubated on a rotary shaker of orbital radius 2.5 cm at 250 rpm and at 30° C. for two days until turbidity in the medium had developed.
as §2, §3, §4

[21] = system: Methylomonas agile (CRL 22 PM9) NRRL B-11,209; assay: as above; format: cell-based
Experimental: as §5, §2, §3, §4

[22] = system: Methylomonas methanica (CRL M4P) NRRL B-11,205; assay: as above; format: cell-based
Experimental: as §5, §2, §3, §4

[23] = system: Methylomonas albus (CRL M8Y) NRRL B-11,207; assay: as above; format: cell-based
Experimental: as §5, §2, §3, §4

[24] = system: Methylomonas streptobacterium (CRL 17 PM3) NRRL B-11,208; assay: as above; format: cell-based
Experimental: as §5, §2, §3, §4

[25] = system: Methylosinus trichosporium (CRL 15 PM1) NRRL B-11,202; assay: as above; format: cell-based
Experimental: as §5, §2, §3, §4

[26] = system: Methylobacter chroococcum (CRL M6) NRRL B-11,214; assay: as above; format: cell-based
Experimental: as §5, §2, §3, §4

[27] = system: Methylobacterium organophilum (CRL 26 R6) NRRL B-11,222; assay: as above; format: cell-based
Experimental: as §5, §2, §3, §4

[28] = system: Methylococcus capsulatus (CRL 25 PM13) NRRL B-11,221; assay: as above; format: cell-based
Experimental: as §5, §2, §3, §4

[29] = system: Methylococcus minimus (CRL 24 PM12) NRRL B-11,220; assay: as above; format: cell-based
Experimental: as §5, §2, §3, §4

[30] = system: Methylosinus sporium (CRL 16 PM2) NRRL B-11,203; assay: as above; format: cell-based
Experimental: as §5, §2, §3, §4

[31] = system: Methylobacter bovis (CRL 19 PM5) NRRL B-11,217; assay: as above; format: cell-based
Experimental: as §5, §2, §3, §4

[32] = system: Methylococcus capsulatus (CRL M1) NRRL B-11,219; assay: as above; format: cell-based
Experimental: as §5, §2, §3, §4

[33] = system: Methylobacter vinelandii (CRL M5Y) NRRL B-11,218; assay: as above; format: cell-based; settings: for Conversion Rate: methane-grown cells, n-pentane to 2-pentanone, n-hexane to 2-hexanone
Experimental: as §5, §2, §3, §4

[34] = system: Methylomonas rosaceus (CRL M10P) NRRL B-11,212; format: cell-based
Experimental: as §5, §2, §3, §4

[35] = system: Methylosinus trichosporium OB3b (NRRL B-11,196); assay: Oxidation by cell suspensions of methane-grown cells; format: cell-based; settings: growth substrate Methane; n-alkane to secondary alcohol
Experimental: as §5, §2, §3
(§6) The conditions for preparing the cell suspensions or the cell-free particulate fractions from methane-grown methylotroph microorganisms is the same as described above.

[36] = system: Methylococcus capsulatus (Texas, ATCC 19,069); assay: as above; format: cell-based; settings: growth substrate Methane; n-alkane to secondary alcohol
Experimental: as §5, §2, §3, §6

[37] = system: Methylomonas methanica (CRL 21 PM7) NRRL B-11,206; assay: Oxidation by washed cell suspensions of methane-grown cells; format: cell-based; settings: methane-grown cells; n-pentane to 2-pentanone, n-hexane to 2-hexanone
Experimental: as §5, §2, §3, §4

[38] = methane-grown cells, n-pentane to 2-pentanone, n-hexane to 2-hexanone

SMILES: CCCCC(C)O (centres unmarked) [2-Hexanol]
- Conversion Rate ([1]; growth substrate Ethanol): 0.72 μmoles/hr/mg of protein
- Conversion Rate ([1]; growth substrate Methanol): 0.8 μmoles/hr/mg of protein
- Conversion Rate ([1]; growth substrate Methylamine): 0.61 μmoles/hr/mg of protein
- Conversion Rate ([1]; growth substrate Methylformate): 0.75 μmoles/hr/mg of protein
- Conversion Rate ([1]; growth substrate Propylamine): 0.52 μmoles/hr/mg of protein
- Conversion Rate [2]: 0.45 μmoles/hr/mg Protein
- Conversion Rate ([3]; growth substrate Ethanol): 0.12 μmoles/hr/mg of protein
- Conversion Rate ([3]; growth substrate Methanol): 0.25 μmoles/hr/mg of protein
- Conversion Rate ([3]; growth substrate Methylamine): 0.10 μmoles/hr/mg of protein
- Conversion Rate ([3]; growth substrate Methylformate): 0.28 μmoles/hr/mg of protein
- Conversion Rate ([3]; growth substrate Propylamine): 0.11 μmoles/hr/mg of protein
- Conversion Rate [4]: 0.60 μmoles/hr/mg Protein
- Conversion Rate [5]: 0.21 μmoles/hr/mg Protein
- Conversion Rate ([6]; growth substrate Ethanol): 0.20 μmoles/hr/mg of protein
- Conversion Rate ([6]; growth substrate Methanol): 0.21 μmoles/hr/mg of protein
- Conversion Rate ([6]; growth substrate Methylamine): 0.12 μmoles/hr/mg of protein
- Conversion Rate ([6]; growth substrate Methylformate): 0.25 μmoles/hr/mg of protein
- Conversion Rate ([6]; growth substrate Propylamine): 0.10 μmoles/hr/mg of protein
- Conversion Rates [7]: 0.05 μmoles/hr/mg protein
- Conversion Rates [8]: 0.02 μmoles/hr/mg protein
- Conversion Rates [9]: 0.09 μmoles/hr/mg protein
- Conversion Rates [10]: 0.06 μmoles/hr/mg protein
- Conversion Rates [11]: 0.08 μmoles/hr/mg protein
- Conversion Rates [12]: 0.02 μmoles/hr/mg protein
- Conversion Rates [13]: 0.03 μmoles/hr/mg protein
- Conversion Rate ([14]; growth substrate Ethanol): 0.28 μmoles/hr/mg of protein
- Conversion Rate ([14]; growth substrate Methanol): 0.50 μmoles/hr/mg of protein
- Conversion Rate ([14]; growth substrate Methylamine): 0.31 μmoles/hr/mg of protein
- Conversion Rate ([14]; growth substrate Methylformate): 0.48 μmoles/hr/mg of protein
- Conversion Rate ([14]; growth substrate Propylamine): 0.21 μmoles/hr/mg of protein
- Conversion Rate ([15]; growth substrate Ethanol): 0.54 μmoles/hr/mg of protein
- Conversion Rate ([15]; growth substrate Methanol): 0.72 μmoles/hr/mg of protein
- Conversion Rate ([15]; growth substrate Methylamine): 0.62 μmoles/hr/mg of protein
- Conversion Rate ([15]; growth substrate Methylformate): 0.70 μmoles/hr/mg of protein
- Conversion Rate ([15]; growth substrate Propylamine): 0.48 μmoles/hr/mg of protein
- oxidation by the purified enzyme [16]: catalyzed the oxidation
- Conversion Rate [17]: 0.25 μmoles/hr/mg Protein
- Conversion Rate [18]: 0.51 μmoles/hr/mg Protein

SMILES: C=CCC [Butene-1]
- Oxidative Conversion Rates [19]: 1.1
- Oxidative Conversion Rates [20]: 0.82
- Oxidative Conversion Rates [21]: 0.5
- Oxidative Conversion Rates [22]: 2.8
- Oxidative Conversion Rates [23]: 1.8
- Oxidative Conversion Rates [24]: 2.5
- Oxidative Conversion Rates [25]: 1.8
- Oxidative Conversion Rates [26]: 0.7
- Oxidative Conversion Rates [27]: 0.9
- Oxidative Conversion Rates [28]: 1.9
- Oxidative Conversion Rates [29]: 1.5
- Oxidative Conversion Rates [30]: 1.2
- Oxidative Conversion Rates [31]: 1.3
- Oxidative Conversion Rates [32]: 1.3
- Oxidative Conversion Rates ([33]; methane-grown washed cells, 30° C., methane to methanol, alkene to 1,2-epoxide): 0 μmole/hr/mg protein
- Oxidative Conversion Rates [34]: 3.1

SMILES: CCCCCC [n-Hexane]
- Conversion Rate [35]: 0.01 μmoles/hr/^5 mg. protein
- Conversion Rate [36]: 0.01 μmoles/hr/^5 mg. protein
- Conversion Rate [37]: 0.01 μmole/hr/mg protein
- Conversion Rate [25]: 0.04
- Conversion Rate [32]: 0.08
- Conversion Rate [33]: 0.01 μmole/hr/mg protein

SMILES: CCCCC [n-Pentane]
- Conversion Rate [35]: 0.06 μmoles/hr/^5 mg. protein
- Conversion Rate [36]: 0.032 μmoles/hr/^5 mg. protein
- Conversion Rate [37]: 0.06 μmole/hr/mg protein
- Conversion Rate [25, 38]: 0.08 μmole/hr/mg protein
- Conversion Rate ([27]; growth substrate Methane, n-alkane to secondary alcohol): 0.01 μmoles/hr/^5 mg. protein
- Conversion Rate [27, 38]: 0.18 μmole/hr/mg protein
- Conversion Rate [32, 38]: 0.15 μmole/hr/mg protein
- Conversion Rate [33]: 0.04 μmole/hr/mg protein
